How the values were obtained:
luciferase = luciferase refolding assay (chaperone activity); assay type: biochemical; details: crude yeast lysate from cells transfected with Hspa8^G470R or WT construct; FIG. 4
Excerpt: Expt. 2A: Does the G470R mutation affect Hspa8 chaperone activity? There is a fine balance between the chaperone activity of Hspa8, which involves ATP and the co-chaperone proteins Sgt (small […] tetratricopeptide repeat-containing protein) and CSP (cysteine string protein), and its role in microautophagy, which is effected independently of ATP and the co-chaperones^36. Altering the ratio of Hspa8 with respect to its co-chaperones, or introducing mutations in certain Hspa8 domains, can shift the balance towards or away from microautophagy and thus alter neurotransmission at the NMJ. For instance, mutations in the ATPase domain disrupt chaperone activity but leave the role of Hspa8 in microautophagy intact. In contrast, mutations in the C-terminal domain of Hspa8, which mediate the interaction of the protein with the lysosomal/endosomal membrane, abolish microautophagy but fail to affect the ability of the protein to refold proteins (chaperone activity). […] To test this, we will examine the ability of Hspa8^G470R to refold luciferase. […] The bioluminescence from the luciferase will be assayed, following the addition of Luciferase Assay reagent (Promega), at regular intervals in a luminometer or plate reader. […]

S. cerevisae = test: in vivo microautophagy assay (vacuolar membrane invagination and intraluminal vesicle formation in yeast); assay type: cell-based; details: in vivo study employing WT and Hspa8^G470R proteins
Excerpt: Expt. 2B: Does the G470R mutation affect Hspa8-dependent microautophagy? Hspa8-dependent microautophagy relies on the ability of the protein to bind the lysosomal/endosomal membrane. In so doing, Hspa8 deforms the membrane to form tubules, a phenomenon that can be quantified using a “tubulation” assay^36. […] To test this, we will subject the two proteins and a control, Hspa8^3KA, that fails to deform membranes^36, to the tubulation assay. Essentially, bacterial lysate from E. coli over-expressing the different Hspa8 molecules will be combined with fluorescently labeled giant unilamellar vesicles (GUVs) made from a defined mixture of lipids that roughly mimic synaptic membranes^49, and the ability of the proteins to trigger membrane deformation/tubule formation will be assessed by fluorescence microscopy. To complement these in vitro experiments, we will assess the ability of Hspa8^G470R protein to deform membranes in vivo. For this, the protein and relevant controls will be separately expressed in S. cerevisae and vacuolar membrane invagination and intraluminal vesicle formation determined using a co-expressed Vba1-GFP construct as a marker^50.

SMN = SMN levels in spinal cord tissue of SMA mice by western blotting; assay type: in vivo; details: PND10 SMA mice, western blot, β-tubulin loading control; FIG. 7
Procedure: PND10 mice of the indicated genotypes were euthanized, and the spinal cord tissue extracted to determine SMN levels by western blotting. β-tubulin was used as a loading control. Band intensities were determined using the NIH ImageJ software.

How did the “chaperone activity (efficiency relative to lysate containing WT Hspa8)” value (luciferase) turn out when “Hspa8^G470R: mutant Hsp70 family member protein Hspa8 with G470R missense mutation in the substrate binding domain” was run?
The value was “only a third as efficient”.

What about the “competence in microautophagy assay” value (S. cerevisae) of the same substance?
Its value is “competent”.

And the “SMN level in spinal cord tissue” value (SMN)?
The value was “increases SMN”.

Source: US11801284B2, “Compositions and methods for treating motor neuron diseases” (The Trustees of Columbia University in the City of New York, priority 2017, dated 2023)
